Source: patent publication US20260335282A1, “NOVEL 3-ARYLIDENE-2-INDOLINONE DERIVATIVES FOR THERAPEUTIC USE” (ISTANBUL UNIVERSITESI REKTORLUGU, priority 2022, published 2026)
Entries after “also recorded” stand apart in the source; their conditions may differ.

Experiments:
Assay type in all cases: cell-based, human
MIAPaCa-2 cells [1] = assay: MTT cytotoxicity, pancreas cancer cells MIAPaCa-2; details: for selectivity index: MCF-10F/Beas2b vs MIAPaCa-2; for IC50: MTT
From the text: (§1) The cytotoxicity, general tyrosine kinase inhibitory effects and cell death (apoptosis/necrosis) assays of 1-benzyl-3-(1H-indol-3-ylmethylidene)-1,3-dihydro-2H-indol-2-one derivatives (Formula 5) of the present invention are studied by the following methods. […] HUVEC (human umbilical vein endothelial cell), MCF-10F (human breast epithelial cell) and Beas2b (human lung bronchial epithelial cell) cell lines have been used as healthy control cells in MTT experiments.
(§2) Beas2b (human lung bronchiole epithelial cell) and HEK293 (renal tubule epithelium) cells used as normal cell lines were cultured in RPMI medium, and HUVEC (human umbilical cord endothelial cells) and MCF-10F (human breast epithelial cell) cells are cultured in DMEM medium containing 100 µg/ml penicillin/streptomycin. The cells, which covered 70% of the culture flask, are washed with phosphate buffer and then removed from the surface of the flask by application of trypsin-ethylenediamine tetraacetic acid (Trypsin-EDTA; 0.25%) solution, passaged, counted and seeded on appropriate plates before each experiment. Cells are treated with a total of 45 2-indolinone compounds (5) at concentrations of 0.1, 1, 5 and 10 μM. Stock compounds are prepared in 1 ml dimethylsulfoxide (DMSO) and 4 different dilutions were prepared with medium and performed to the cells. Control group cells are treated with DMSO at a similar concentration to the experimental groups.
(§3) MTT (3-(4,5-dimethylthiazol-2-yl)-2,5-diphenyl-2H-tetrazolium bromide) colorimetric assay provides quantitation of viable cells with ongoing mitochondrial activity in culture medium. According to the standard procedure in cell culture conditions, cells are maintained in RPMI-1640 and DMEM culture media containing 10% FBS and 1% penicillin/streptomycin. The trypan blue test is used for cell counts.
(§4) The effects of 45 2-indolinone compounds (5) on cell viability in all cancer cell lines are investigated by MTT assay. Cells are seeded in a 96-well flat bottom plate with 5000 cells in each well and 2-indolinone compounds (5) at concentrations of 0.1, 1, 5 and 10 μM are performed to the cells the next day. After 48 and/or 72 hours following treatment with 2-indolinone compounds, 50 μl of the supernatant is slowly discarded (as it was acid medium) and MTT at a concentration of 5 mg/ml is added to each well in a volume of 10 μl. After incubation for 4 hours, the formazan crystals formed in the wells are dissolved by adding 100 μl DMSO and the optical density is read at 570 nm test wavelength and 630 nm reference wavelength. Cell viability is expressed as % cell viability by comparing the absorbance of control and test wells. IC50 value is calculated from the dose-response curves prepared for each compound. In addition, the possible DMSO effect is eliminated by preparing negative control wells compatible with the amount of DMSO contained in the compounds. To understand the reaction of the compounds with MTT, cell-free (MTT+compounds) negative controls are prepared at the concentrations used (Mosmann, 1983). […] The absorbance values obtained are compared to the control and statistically evaluated by unpaired t-test using “Graphpad Prism 5.04” software. “P<0.05” is accepted as significant. When evaluating cytotoxic effects, the present inventors aim for the inventive compounds to be effective in cancer cells and ineffective in healthy cells. The inventive compounds have also been compared with sunitinib, one of the reference chemotherapy drugs currently used in treatment.

CAKI-1 cells = assay: MTT cytotoxicity, kidney cancer cells CAKI-1; details: no * mark (incubation time not specified)
From the text: as §1, §2, §3, §4
(§5) Among the compounds of the present invention, those that killed cancer cells by at least 50% (p<0.05) are selected and tested whether a 10-fold concentration of the M concentration at the IC50 value is toxic to normal healthy cells.

MIAPaCa-2 cells [2] = assay: Apoptosis/necrosis detection, Annexin V/PI flow cytometry, MiaPaca-2; details: for necrosis compared to control: MiaPaca-2; for apoptosis (early and late) compared to control: MiaPaca-2, IC50 values
Description: (§6) After incubation with 2-indolinone compounds (IC50 μM concentration; 48 and/or 72 hours), cells are washed twice with PBS and the cell pellet is suspended in Annexin V binding buffer. After this incubation, cells are incubated with FITC-conjugated Annexin V and propidium iodine staining solution for 15 minutes in the dark and at room temperature. Then, cells are analyzed by flow cytometry (Beckman coulter, Navios) (Wlodkowic, D., Skommer, J, Darzynkiewicz, Z. 2009. Flow cytometry-based apoptosis detection, Methods Mol Biol., 559, 1-14).

MDA-MB-231 cells = assay: MTT cytotoxicity, breast cancer cells MDA-MB-231; details: read-out: IC50, MDA-MB-231 (breast); MTT, no * mark (incubation time not given)
From the text: as §1, §2, §3, §4, §5

HT-29 cells = assay: MTT cytotoxicity, colon cancer cells HT-29; details: MTT, no * mark (incubation time not specified)
From the text: as §1, §2, §3, §4

HUVEC cells = assay: MTT cytotoxicity, healthy cells HUVEC; details: for Selectivite Index, HUVEC (Table 2): HUVEC vs colon or pancreas cancer cells, cancer line not given; for IC50: MTT, no * mark (incubation time not specified)
From the text: as §1, §2, §3, §4, §5

A498 cells = assay: MTT cytotoxicity, kidney cancer cells A498; details: MTT, no * mark (incubation time not specified)
From the text: as §1, §2, §3, §4, §5

[3] = test system: general tyrosine kinase activity in MIA PaCa-2 pancreas cancer cells; assay: General tyrosine kinase activity (ELISA) in MIAPaCa-2 cells; details: 72 hours, IC50 concentration
Description: Takara Universal Tyrosine Kinase Assay Kit is used to determine the effects of 11 2-indolinone compounds (Y1, Y2, Y3, Y4, Y5, Y8, […], […], Y21, Y23, 20C, 22C) on general tyrosine kinase activity in cancer cells. Cells are seeded in 6-well plates (4.10^5 cells/well) and the IC50 concentration of each selected molecule is performed to the cells for 48 or 72 hours. Cells in the control group are incubated with medium only. At the end of the incubation period, the cells in each well are washed with PBS and cells are removed from the wells using a cell scraper via 1 ml of the extraction buffer in the kit. The cell lysate is transferred to ependorf tubes and centrifuged at 10.000 g for 10 minutes at +4° C. and the supernatant is used as a sample for activity determination. After the extracts obtained from the control and experimental groups are diluted 1:25, 40 μl extracts is transferred to two wells in the 96-well plate in the kit. In addition, the standard solution in the kit is diluted according to the kit instructions and each concentration is transferred 40 μl into three wells. 10 μl of 40 mM ATP-2Na solution is added to all wells and the plate is incubated at 37° C. for 30 minutes. After incubation, all wells are washed 4 times with wash buffer. 100 μl of blocking solution is added to each well and incubated again at 37° C. for 30 minutes. After incubation, the liquid in the wells is discarded and 50 μl of anti-phosphotyrosine-HRP solution is added to each well and incubated at 37° C. for 30 minutes. The wells are washed again four times with wash buffer and 100 μl of HRP-substrate solution (TMBZ) is added to each well and incubated at 37° C. for 15 minutes. The reaction is finished by adding 100 μl of stop solution to each well and the optical density in each well is measured at 405 nm with a microplate reader (BioTek, USA). The tyrosine kinase activity in each sample is calculated from the standard curve obtained from the absorbance values of the standard solutions with the kit (Chan W Y, Lau P M, Yeung K W, Kong S K. The second generation tyrosine kinase inhibitor dasatinib induced eryptosis in human erythrocytes—An in vitro study. Toxicol Lett. 2018; 295:10-21). This activity is normalized compared to the control group by dividing by the amount of protein in each sample.
The effects of 11 2-indolinone compounds (Y1, Y2, Y3, Y4, Y5, Y8, Y14, Y21, Y23, 20C and 22C) having the structure of formula (5), which are prominent with their cytotoxicity in A498, MIAPaCa-2 and HCT-116 cancer cell lines and nontoxic properties in healthy cells, on general tyrosine kinase activity in cancer cells are determined.

MCF-10F/Beas2b cells = assay: MTT cytotoxicity, healthy cells MCF-10F/Beas2b; details: for Selectivite Index, MCF-10F/Beas2b (Table 2): MCF-10F/Beas2b vs colon or pancreas cancer cells, cancer line not given
From the text: as §1, §2, §3, §4, §5

MCF-7 cells = assay: MTT cytotoxicity, breast cancer cells MCF-7; details: MTT, no * mark (incubation time not specified)
From the text: as §1, §2, §3, §4, §5

A549 cells = assay: MTT cytotoxicity, lung cancer cells A549; details: no * mark (incubation time not specified)
From the text: as §1, §2, §3, §4, §5

HCT-116 cells = assay: MTT cytotoxicity, colon cancer cells HCT-116; details: no * mark (incubation time not specified)
From the text: as §1, §2, §3, §4

[4] = test system: pancreas and kidney cancer cells; assay: Apoptosis detection, Annexin V/PI flow cytometry, pancreas and kidney cancer cells
Description: as §6
Whether the 2-indolinone derivatives (5) with the highest selectivity index and general TKI activity stimulated apoptosis and necrosis is determined by Annexin V and propidium iodine staining in pancreas and kidney cancer cells. Annexin V/PI flow cytometry apoptosis values of the tested compounds Y1, Y2, Y3, Y4, Y8 and Y14 are found to be 40% and above in correlation with MTT results. The apoptosis rates of the control groups and the substances are analyzed by t test in GraphPad version 9.0.

[5] = no * mark (incubation time not specified)

Compound	selectivity index (MIAPaCa-2 cells [1])	IC50 (MIAPaCa-2 cells [1]; [5])	IC50 (CAKI-1 cells)	necrosis compared to control (MIAPaCa-2 cells [2])	apoptosis (early and late) compared to control (MIAPaCa-2 cells [2])	IC50 (MDA-MB-231 cells)	IC50 (HT-29 cells)	Selectivite Index, HUVEC (Table 2) (HUVEC cells)	IC50 (HUVEC cells)	IC50 (A498 cells)	general tyrosine kinase activity compared to control [3]	Selectivite Index, MCF-10F/Beas2b (Table 2) (MCF-10F/Beas2b cells)	IC50 (MCF-7 cells)	IC50 (A549 cells)	IC50 (HCT-116 cells)	Annexin V/PI flow cytometry apoptosis values [4]	IC50 (MCF-10F/Beas2b cells; MTT, no * mark (incubation time not specified))	IC50 (MIAPaCa-2 cells [1])
O=C1/C(=C\c2c[nH]c3ccccc23)c2cc(F)ccc2N1Cc1ccccc1 [Y5]	> 37	0.27 µM	3.42 µM	did not cause necrosis	increase in apoptosis at IC50 values was statistically significant	7.94 µM	2.98 µM	8.04	2.17 µM	4.32 µM	significantly decreased; also recorded: decreased the general tyrosine kinase activity	> 37.04	4.44 µM	7.81 µM	2.05 µM	–	–	–
Cn1cc(/C=C2\C(=O)N(Cc3ccccc3)c3ccc(OC(F)(F)F)cc32)c2ccccc21 [Y14]	–	0.15 µM	> 10 µM	did not cause necrosis	increase in apoptosis at IC50 values was statistically significant	> 10 µM	> 10 µM	> 66.66	> 10 µM	> 10 µM	significantly decreased; also recorded: decreased the general tyrosine kinase activity	45.06	6.09 µM	> 10 µM	> 10 µM	≥ 40%	6.76 µM	–
Cc1ccc(CN2C(=O)/C(=C\c3c[nH]c4ccccc34)c3ccccc32)cc1 [Y21]	> 25	0.4 µM	> 10 µM	–	–	> 10 µM	> 10 µM	6.15	2.46 µM	4.06 µM	significantly decreased	> 25.00	8.77 µM	> 10 µM	3.14 µM	–	–	0.4 µM
